Data on one molecule can be found in patent publication US7186354B2, “Anticorrosive treating concentrate” (NEC Electronics Corporation, priority 2000, dated 2007).

The nature of this data set: solubility of BTA in water (FIG. 1). The class given is physicochemical.

In the case of `c1ccc2[nH]nnc2c1` [BTA, benzotriazole], the “solubility of BTA in water” value is given as “about 1%” (10° C.), “about 1.9%” (20° C.), “about 4%” (30° C.) and “about 8%” (80° C.). For the same molecule, for the setting “water of 20° C.”, the solubility in water result is given as “about 1.9 wt-%”.
